This passage reports IC50 results from patent US7211572B2 (Japan Tobacco Inc., priority 2003, dated 2007).

The target in the experiment is T1, HIV integrase (Human immunodeficiency virus type 1 group M subtype B, UniProt P12497, F1332H).
T1 construct: HIV integrase full length gene; made in house; host or cells: Escherichia coli BL21(DE3), plasmid pET21a-INH
Kind of experiment: Determination of enzyme (HIV integrase) inhibitory activity. The settings on record: recombinant HIV integrase (F185H), strand transfer ELISA, absorbance at 450 nm. The class given is biochemical. A digest of the protocol:
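Full-length integrase with F185H, expressed in E. coli and purified, was reacted for 60 min at 37 °C with compound and biotinylated donor DNA bound to streptavidin plates. Target DNA was added for 10 min, then anti-digoxigenin-peroxidase detection at A450; IC50 from % inhibition versus enzyme-free blank.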
In general terms: An ELISA detects its analyte on a solid surface through an enzyme-linked reagent.

pIC50: −log10 of the molar value. Counter-ions that a name gives are not always drawn.

One may read the pIC50 as the IC50 on a negative log10 scale, so that one unit is a factor of ten. With `O=C(NCc1ccccn1)c1cn2c(c(O)c1=O)C(=O)N(Cc1cccc(Cl)c1)CC2` [Example 372, N-(pyridin-2-ylmethyl)-2-(3-chlorobenzyl)-9-hydroxy-1,8-dioxo-1,3,4,8-tetrahydro-2H-pyrido[1,2-a]pyrazine-7-carboxamide hydrochloride], the pIC50 was 7.00 to 8.00.

On to `O=C1c2c(O)c(=O)c(-c3ccccn3)cn2CCN1Cc1ccc(Cl)c(Cl)c1` [Example 373, 2-(3,4-dichlorobenzyl)-9-hydroxy-7-(pyridin-2-yl)-3,4-dihydro-2H-pyrido[1,2-a]pyrazine-1,8-dione trifluoroacetate], for which the pIC50 was more than 8.00.

Take `CC(=O)CNC(=O)c1cn2c(c(O)c1=O)C(=O)N(Cc1cccc(Cl)c1)CC2` [Example 374, N-(2-oxopropyl)-2-(3-chlorobenzyl)-9-hydroxy-1,8-dioxo-1,3,4,8-tetrahydro-2H-pyrido[1,2-a]pyrazine-7-carboxamide hydrochloride]: the pIC50 was 7.00 to 8.00.

In the case of `O=c1c(-c2ccncc2)cn2ccn(Cc3cccc(F)c3)c(=O)c2c1O` [Example 375, 2-(3-fluorobenzyl)-9-hydroxy-7-(pyridin-4-yl)-2H-pyrido[1,2-a]pyrazine-1,8-dione hydrochloride], the negative logarithm of the IC50 (pIC50) was 7.00 to 8.00.

As to `CC(C)(C)C(=O)c1cn2ccn(Cc3cccc(F)c3)c(=O)c2c(O)c1=O` [Example 376, 7-(2,2-dimethylpropionyl)-2-(3-fluorobenzyl)-9-hydroxy-2H-pyrido[1,2-a]pyrazine-1,8-dione hydrochloride], the pIC50 was 7.00 to 8.00.

Take `O=C(NCc1ccccc1F)c1cn2c(c(O)c1=O)C(=O)N(Cc1ccc(F)cc1)CC2` [Example 377, N-(2-fluorobenzyl)-2-(4-fluorobenzyl)-9-hydroxy-1,8-dioxo-1,3,4,8-tetrahydro-2H-pyrido[1,2-a]pyrazine-7-carboxamide]: the pIC50 is more than 8.00.

On to `O=C(NCc1ccc(F)cc1)c1cn2c(c(O)c1=O)C(=O)N(Cc1ccc(F)cc1)CC2` [Example 378, N-(4-fluorobenzyl)-2-(4-fluorobenzyl)-9-hydroxy-1,8-dioxo-1,3,4,8-tetrahydro-2H-pyrido[1,2-a]pyrazine-7-carboxamide], for which the pIC50 is more than 8.00.

Regarding `CNC(=O)c1cn2c(c(O)c1=O)C(=O)N(Cc1ccc(F)cc1)CC2` [Example 379], the pIC50 is 6.00 to 7.00.

Take `O=C(NCc1ccccc1)c1cn2c(c(O)c1=O)C(=O)N(Cc1ccc(F)cc1)CC2` [Example 380, N-benzyl-2-(4-fluorobenzyl)-9-hydroxy-1,8-dioxo-1,3,4,8-tetrahydro-2H-pyrido[1,2-a]pyrazine-7-carboxamide]: the pIC50 is 7.00 to 8.00.

In the case of `CNC(=O)c1cn2c(c(O)c1=O)C(=O)N(Cc1ccc(Cl)cc1)CC2` [Example 381, N-methyl-2-(4-chlorobenzyl)-9-hydroxy-1,8-dioxo-1,3,4,8-tetrahydro-2H-pyrido[1,2-a]pyrazine-7-carboxamide], the pIC50 was 7.00 to 8.00.

With `CCC(C)(C)C(=O)c1cn2ccn(Cc3ccc(F)cc3)c(=O)c2c(O)c1=O` [Example 382, 7-(2,2-dimethylbutyryl)-2-(4-fluorobenzyl)-9-hydroxy-2H-pyrido[1,2-a]pyrazine-1,8-dione hydrochloride], the pIC50 was 7.00 to 8.00.

Take `O=C1c2c(O)c(=O)c(-c3cnccn3)cn2CCN1Cc1ccc(Cl)c(Cl)c1` [Example 383, 2-(3,4-dichlorobenzyl)-9-hydroxy-7-(pyrazin-2-yl)-3,4-dihydro-2H-pyrido[1,2-a]pyrazine-1,8-dione hydrochloride]: the pIC50 is 7.00 to 8.00.

Consider `CC(C)C(=O)c1cn2c(c(O)c1=O)C(=O)N(Cc1ccc(Cl)c(Cl)c1)CC2` [Example 384, 2-(3,4-dichlorobenzyl)-9-hydroxy-7-isobutyryl-3,4-dihydro-2H-pyrido[1,2-a]pyrazine-1,8-dione], for which the pIC50 was more than 8.00.

`CC(C)C(=O)c1cn2c(c(O)c1=O)C(=O)N(Cc1ccc(F)cc1)CC2` [Example 385, 2-(4-fluorobenzyl)-9-hydroxy-7-isobutyryl-3,4-dihydro-2H-pyrido[1,2-a]pyrazine-1,8-dione]: the pIC50 was 7.00 to 8.00.

`CC(C)(C)C(=O)c1cn2c(c(O)c1=O)C(=O)N(Cc1ccc(F)cc1)CC2` [Example 386, 7-(2,2-dimethylpropionyl)-2-(4-fluorobenzyl)-9-hydroxy-3,4-dihydro-2H-pyrido[1,2-a]pyrazine-1,8-dione]: the pIC50 was 7.00 to 8.00.

As for `CC(C)CC(=O)c1cn2ccn(Cc3ccc(F)cc3)c(=O)c2c(O)c1=O` [Example 387, 2-(4-fluorobenzyl)-9-hydroxy-7-(3-methylbutyryl)-2H-pyrido[1,2-a]pyrazine-1,8-dione hydrochloride], the pIC50 is 7.00 to 8.00.

For `CNC(=O)c1cn2c(c(O)c1=O)C(=O)N(Cc1ccc(F)c(F)c1)CC2` [Example 388, N-methyl-2-(3,4-difluorobenzyl)-9-hydroxy-1,8-dioxo-1,3,4,8-tetrahydro-2H-pyrido[1,2-a]pyrazine-7-carboxamide], the pIC50 was 6.00 to 7.00.

Take `COCC(C)(C)C(=O)c1cn2c(c(O)c1=O)C(=O)N(Cc1ccc(F)cc1)CC2` [Example 389, 2-(4-fluorobenzyl)-9-hydroxy-7-(3-methoxy-2,2-dimethylpropionyl)-3,4-dihydro-2H-pyrido[1,2-a]pyrazine-1,8-dione]: the pIC50 was 7.00 to 8.00.

As to `O=c1c(-c2ccncn2)cn2ccn(Cc3cccc(Cl)c3)c(=O)c2c1O` [Example 391, 2-(3-chlorobenzyl)-9-hydroxy-7-(pyrimidin-4-yl)-2H-pyrido[1,2-a]pyrazine-1,8-dione hydrochloride], the pIC50 is 7.00 to 8.00.

With `O=C1c2c(O)c(=O)c(-c3ccncn3)cn2CCN1Cc1ccc(F)cc1` [Example 392, 2-(4-fluorobenzyl)-9-hydroxy-7-(pyrimidin-4-yl)-3,4-dihydro-2H-pyrido[1,2-a]pyrazine-1,8-dione hydrochloride], the pIC50 is 7.00 to 8.00.

Take `O=C1c2c(O)c(=O)c(-c3ccncn3)cn2CCN1Cc1ccc(Cl)cc1` [Example 393, 2-(4-chlorobenzyl)-9-hydroxy-7-(pyrimidin-4-yl)-3,4-dihydro-2H-pyrido[1,2-a]pyrazine-1,8-dione hydrochloride]: the pIC50 is 7.00 to 8.00.

Turning to `O=C1c2c(O)c(=O)c(-c3ccncn3)cn2CCN1Cc1ccc(F)c(Cl)c1` [Example 394, 2-(3-chloro-4-fluorobenzyl)-9-hydroxy-7-(pyrimidin-4-yl)-3,4-dihydro-2H-pyrido[1,2-a]pyrazine-1,8-dione hydrochloride], the pIC50 is 7.00 to 8.00.

Take `O=c1c(-c2ccncn2)cn2ccn(Cc3ccc(F)c(Cl)c3)c(=O)c2c1O` [Example 395, 2-(3-chloro-4-fluorobenzyl)-9-hydroxy-7-(pyrimidin-4-yl)-2H-pyrido[1,2-a]pyrazine-1,8-dione hydrochloride]: the pIC50 is more than 8.00.

With `CCCOc1cc(Cl)cc(CN2CCn3cc(-c4nccs4)c(=O)c(O)c3C2=O)c1` [Example 396, 2-(3-chloro-5-propoxybenzyl)-9-hydroxy-7-(thiazol-2-yl)-3,4-dihydro-2H-pyrido[1,2-a]pyrazine-1,8-dione hydrochloride], the pIC50 was 7.00 to 8.00.

In the case of `CC(C)Oc1cc(Cl)cc(CN2CCn3cc(-c4nccs4)c(=O)c(O)c3C2=O)c1` [Example 397, 2-(3-chloro-5-isopropoxybenzyl)-9-hydroxy-7-(thiazol-2-yl)-3,4-dihydro-2H-pyrido[1,2-a]pyrazine-1,8-dione hydrochloride], the pIC50 was 7.00 to 8.00.

Regarding `O=C1c2c(O)c(=O)c(-c3nccs3)cn2CCN1Cc1cc(Cl)cc(OCc2ccccc2)c1` [Example 398, 2-(3-benzyloxy-5-chlorobenzyl)-9-hydroxy-7-(thiazol-2-yl)-3,4-dihydro-2H-pyrido[1,2-a]pyrazine-1,8-dione hydrochloride], the pIC50 is 7.00 to 8.00.

For the molecule `O=c1c(-c2ccncn2)cn2ccn(Cc3ccc(Cl)cc3)c(=O)c2c1O` [Example 399, 2-(4-chlorobenzyl)-9-hydroxy-7-(pyrimidin-4-yl)-2H-pyrido[1,2-a]pyrazine-1,8-dione hydrochloride], the pIC50 was more than 8.00.

With `O=C(Cc1cccnc1)Nc1cn2ccn(Cc3cccc(Cl)c3)c(=O)c2c(O)c1=O` [Example 400, N-[2-(3-chlorobenzyl)-9-hydroxy-1,8-dioxo-1,8-dihydro-2H-pyrido[1,2-a]pyrazin-7-yl]-2-(pyridin-3-yl)acetamide hydrochloride], the pIC50 was more than 8.00.

Regarding `O=C(Cc1ccncc1)Nc1cn2ccn(Cc3cccc(Cl)c3)c(=O)c2c(O)c1=O` [Example 401, N-[2-(3-chlorobenzyl)-9-hydroxy-1,8-dioxo-1,8-dihydro-2H-pyrido[1,2-a]pyrazin-7-yl]-2-(pyridin-4-yl)acetamide hydrochloride], the pIC50 was 7.00 to 8.00.

Regarding `O=C(Cc1ccccn1)Nc1cn2ccn(Cc3cccc(Cl)c3)c(=O)c2c(O)c1=O` [Example 402, N-[2-(3-chlorobenzyl)-9-hydroxy-1,8-dioxo-1,8-dihydro-2H-pyrido[1,2-a]pyrazin-7-yl]-2-(pyridin-2-yl)acetamide hydrochloride], the pIC50 is 7.00 to 8.00.

Turning to `O=c1c(-c2ccncn2)cn2ccn(Cc3cccc(F)c3)c(=O)c2c1O` [Example 403, 2-(3-fluorobenzyl)-9-hydroxy-7-(pyrimidin-4-yl)-2H-pyrido[1,2-a]pyrazine-1,8-dione hydrochloride], the pIC50 is 7.00 to 8.00.

Turning to `O=c1c(-c2cnccn2)cn2ccn(Cc3cccc(F)c3)c(=O)c2c1O` [Example 404, 2-(3-fluorobenzyl)-9-hydroxy-7-(pyrazin-2-yl)-2H-pyrido[1,2-a]pyrazine-1,8-dione hydrochloride], the negative logarithm of the IC50 (pIC50) is 7.00 to 8.00.

Take `Cn1ncnc1-c1cn2ccn(Cc3ccc(F)c(Cl)c3)c(=O)c2c(O)c1=O` [Example 405, 2-(3-chloro-4-fluorobenzyl)-9-hydroxy-7-(2-methyl-2H-1,2,4-triazol-3-yl)-2H-pyrido[1,2-a]pyrazine-1,8-dione hydrochloride]: the pIC50 is more than 8.00.
